Key:
[1] = target: T1, F508del-CFTR double mutants (K68I, N71I, R74A, F81A, A198Y, W361A, S364F) (Homo sapiens, UniProt P13569, DEL508-508/K68I); assay: Protein maturation assay (WB) of F508del-CFTR double mutants in transfected HEK293 cells; type: cell-based; conditions: F508del/K68I-CFTR; HEK293, 10 nM, 24 h
T1 construct: CFTR identification in pull-down studies and analysis of full-length CFTR in protein maturation assays; expressed in transfected cells; host or cells: HEK293 (transient, pCDNA3.1 constructs, JetPEI)
Protocol: (§1) To confirm in cells the above-predicted binding site for ARN23765, we introduced the investigated single-site mutations into the F508del-CFTR coding sequence. The rescue of double mutant proteins (F508del + new mutation) by ARN23765 was assessed with WB analysis of protein maturation and evaluation of channel activity (FLIPR assay)[40] in transfected HEK293 cells. Since correctors 3151 (type II)[16] and VX-445 (type III)[18] have been reported to bind to different CFTR sites, we used these compounds as controls. As expected, ARN23765-induced maturation of F508del-CFTR was not affected by the N71I substitution. […] Indeed, the corrector was no longer able to promote protein maturation (Figure 9A and S8A). […] The results of protein maturation analysis were mostly confirmed by functional data (Figure 9B and S8B), in which the channel activity of double-mutated proteins was evaluated in terms of the change in cell membrane potential change (FLIPR assay).
(§2) HEK293 cells were plated in 24-wells at around 80% of confluence and transfected with constructs coding for F508del-CFTR or mutants using JetPEI reagent (101000053, Polyplus Technology) following the manufacturer’s instructions. After 24 h, the correctors were added for a further 24 h. Correctors were used at the following concentrations: ARN23765 (10 nM), VX-445 (3 μM), and 3151 (10 μM). For binding site analysis experiments, the cells were kept either at 37 °C (Figure S8) or moved to 30 °C (Figure 9) during incubation with the selected correctors. VX-445 and corrector 3151 were mixed together as a control for maximal protein correction. DMSO (0.2%) was added to nontreated controls. After treatment, cells were lysed in RIPA buffer [50 mM tris-HCl pH 8, 150 mM NaCl, 1% NP40, 0.5% sodium deoxycolate, 0.1% SDS, 2.0 mM EDTA] and lysates were analyzed with WB, as described in the supplementary methods of the Supporting Information. […]
(§3) Site-directed mutagenesis
(§4) Desired mutations were introduced using the QuikChange II XL site-directed mutagenesis kit (200522,
(§5) Agilent Technologies) according to the manufacturer’s instructions. F508del-CFTR pCDNA3.1 was used
(§6) as a template for the synthesis of mutated constructs K68I/F508del-CFTR, N71I/F508del-CFTR,
(§7) S364F/F508del-CFTR. The introduction of the mutation and the whole CFTR sequence were checked by
(§8) Sanger sequencing. Mutants R1070W/F508del-CFTR and R170G-
(§9) CFTR were produced as previously described.4

[2] = target: T2, F508del-CFTR double mutants (K68I, N71I, R74A, F81A, A198Y, W361A, S364F) (Homo sapiens, UniProt P13569, DEL508-508/N71I); assay: as above; type: cell-based; conditions: F508del/N71I-CFTR; HEK293, 10 nM, 24 h
T2 construct: CFTR identification in pull-down studies and analysis of full-length CFTR in protein maturation assays; expressed in transfected cells; host or cells: HEK293 (transient, pCDNA3.1 constructs, JetPEI)
Protocol: as §1, §2, §3, §4, §5, §6, §7, §8, §9

[3] = target: T3, F508del-CFTR double mutants (K68I, N71I, R74A, F81A, A198Y, W361A, S364F) (Homo sapiens, UniProt P13569, DEL508-508/R74A); assay: as above; type: cell-based; conditions: F508del/R74A-CFTR; HEK293, 10 nM, 24 h
T3 construct: CFTR identification in pull-down studies and analysis of full-length CFTR in protein maturation assays; expressed in transfected cells; host or cells: HEK293 (transient, pCDNA3.1 constructs, JetPEI)
Protocol: as §1, §2, §3, §4, §5, §6, §7, §8, §9

[4] = target: T4, F508del-CFTR double mutants (K68I, N71I, R74A, F81A, A198Y, W361A, S364F) (Homo sapiens, UniProt P13569, DEL508-508/S364F); assay: as above; type: cell-based; conditions: F508del/S364F-CFTR; HEK293, 10 nM, 24 h
T4 construct: CFTR identification in pull-down studies and analysis of full-length CFTR in protein maturation assays; expressed in transfected cells; host or cells: HEK293 (transient, pCDNA3.1 constructs, JetPEI)
Protocol: as §1, §2, §3, §4, §5, §6, §7, §8, §9

[5] = target: T5, F508del-CFTR double mutants (K68I, N71I, R74A, F81A, A198Y, W361A, S364F) (Homo sapiens, UniProt P13569, DEL508-508/W361A); assay: as above; type: cell-based; conditions: F508del/W361A-CFTR; HEK293, 10 nM, 24 h
T5 construct: CFTR identification in pull-down studies and analysis of full-length CFTR in protein maturation assays; expressed in transfected cells; host or cells: HEK293 (transient, pCDNA3.1 constructs, JetPEI)
Protocol: as §1, §2, §3, §4, §5, §6, §7, §8, §9

[6] = target: T6, F508del-CFTR double mutants (K68I, N71I, R74A, F81A, A198Y, W361A, S364F) (Homo sapiens, UniProt P13569, DEL508-508/F81A); assay: as above; type: cell-based; conditions: F508del/F81A-CFTR; HEK293, 10 nM, 24 h
T6 construct: CFTR identification in pull-down studies and analysis of full-length CFTR in protein maturation assays; expressed in transfected cells; host or cells: HEK293 (transient, pCDNA3.1 constructs, JetPEI)
Protocol: as §1, §2, §3, §4, §5, §6, §7, §8, §9

[7] = target: T7, F508del-CFTR double mutants (K68I, N71I, R74A, F81A, A198Y, W361A, S364F) (Homo sapiens, UniProt P13569, A198Y/DEL508-508); assay: as above; type: cell-based; conditions: F508del/A198Y-CFTR; HEK293, 10 nM, 24 h
T7 construct: CFTR identification in pull-down studies and analysis of full-length CFTR in protein maturation assays; expressed in transfected cells; host or cells: HEK293 (transient, pCDNA3.1 constructs, JetPEI)
Protocol: as §1, §2, §3, §4, §5, §6, §7, §8, §9

F508del-CFTR = target: T8, F508del-CFTR (Homo sapiens, UniProt P13569, DEL508-508); set-up: method as in PMID 32128418; conditions: bronchial epithelial cells from F508del-CFTR CF individuals; cited from earlier work
T8 construct: expressed in transfected cells

CFTR MSD1 = target: T9, CFTR MSD1 (Homo sapiens, UniProt P13569); assay: Cycloheximide chase assay in transfected HEK293 cells; type: cell-based; conditions: HEK293, 10 nM 24 h, then 6 h of cycloheximide treatment
T9 construct: MSD1 (residues 1–380); expressed in transfected cells; host or cells: HEK293 (transient, JetPEI)
Protocol: (§10) HEK293 cells were transfected with MSD1- or MSD2-fragments as previously described.[39] After 18 h, cells were treated with either 0.2% DMSO or ARN23765 (10 nM). Following 24 h treatment, the protein synthesis was stopped by addition of a medium containing 0.5 mg/mL cycloheximide and either DMSO (0.2%) or ARN23765 (10 nM). The cells were incubated at 37 °C and lysed at various time periods (0–6 h). The whole cell extracts were then analyzed by WB, as described in the supplementary methods of the Supporting Information.

CFTR MSD2 = target: T10, CFTR MSD2 (Homo sapiens, UniProt P13569); assay: as above; type: cell-based; conditions: HEK293, 10 nM 24 h, then 6 h of cycloheximide treatment
T10 construct: A52-tagged MSD2 (residues 837–1196); expressed in transfected cells; host or cells: HEK293 (transient, JetPEI)
Protocol: as §10

T5 sequence (P13569 with tags, fused parts or gaps W361A/DEL508-508): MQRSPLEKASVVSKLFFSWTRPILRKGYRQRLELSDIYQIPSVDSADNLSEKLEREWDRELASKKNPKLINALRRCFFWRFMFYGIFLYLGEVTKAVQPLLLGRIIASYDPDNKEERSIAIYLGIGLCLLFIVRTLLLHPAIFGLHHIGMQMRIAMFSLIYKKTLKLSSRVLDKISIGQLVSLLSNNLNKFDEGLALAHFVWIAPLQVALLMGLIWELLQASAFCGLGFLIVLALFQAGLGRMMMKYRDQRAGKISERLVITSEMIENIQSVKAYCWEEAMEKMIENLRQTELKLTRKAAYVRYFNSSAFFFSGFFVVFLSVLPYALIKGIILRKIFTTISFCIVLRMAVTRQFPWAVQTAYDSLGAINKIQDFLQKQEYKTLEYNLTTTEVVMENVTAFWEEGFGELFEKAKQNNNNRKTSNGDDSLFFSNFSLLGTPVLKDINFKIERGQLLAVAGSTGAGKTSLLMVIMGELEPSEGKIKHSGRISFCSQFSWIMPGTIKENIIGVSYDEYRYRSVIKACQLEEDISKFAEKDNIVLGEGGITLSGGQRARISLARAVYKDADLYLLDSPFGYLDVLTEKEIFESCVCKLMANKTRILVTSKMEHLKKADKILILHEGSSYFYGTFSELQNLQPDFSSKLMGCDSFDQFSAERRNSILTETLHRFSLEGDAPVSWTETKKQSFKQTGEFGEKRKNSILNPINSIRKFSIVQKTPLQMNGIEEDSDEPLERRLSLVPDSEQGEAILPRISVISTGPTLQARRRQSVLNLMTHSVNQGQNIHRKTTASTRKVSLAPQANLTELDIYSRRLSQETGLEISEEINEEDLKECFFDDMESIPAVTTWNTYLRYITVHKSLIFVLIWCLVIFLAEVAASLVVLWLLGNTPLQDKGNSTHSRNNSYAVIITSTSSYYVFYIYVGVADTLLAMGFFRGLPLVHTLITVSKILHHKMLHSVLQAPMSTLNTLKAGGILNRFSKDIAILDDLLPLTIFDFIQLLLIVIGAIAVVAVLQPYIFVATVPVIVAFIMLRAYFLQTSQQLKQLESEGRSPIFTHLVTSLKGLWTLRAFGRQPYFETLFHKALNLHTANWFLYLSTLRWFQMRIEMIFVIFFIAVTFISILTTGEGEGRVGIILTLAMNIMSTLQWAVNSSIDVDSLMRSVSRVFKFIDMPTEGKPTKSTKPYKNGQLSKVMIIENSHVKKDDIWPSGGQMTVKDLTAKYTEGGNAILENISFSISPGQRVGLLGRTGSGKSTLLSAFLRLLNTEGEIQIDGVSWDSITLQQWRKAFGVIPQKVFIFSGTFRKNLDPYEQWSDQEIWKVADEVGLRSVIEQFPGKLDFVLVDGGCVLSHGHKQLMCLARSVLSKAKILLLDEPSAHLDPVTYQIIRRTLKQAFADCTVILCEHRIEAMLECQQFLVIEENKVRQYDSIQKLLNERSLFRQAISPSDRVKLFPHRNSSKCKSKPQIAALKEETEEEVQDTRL
T9 sequence (P13569 1-380): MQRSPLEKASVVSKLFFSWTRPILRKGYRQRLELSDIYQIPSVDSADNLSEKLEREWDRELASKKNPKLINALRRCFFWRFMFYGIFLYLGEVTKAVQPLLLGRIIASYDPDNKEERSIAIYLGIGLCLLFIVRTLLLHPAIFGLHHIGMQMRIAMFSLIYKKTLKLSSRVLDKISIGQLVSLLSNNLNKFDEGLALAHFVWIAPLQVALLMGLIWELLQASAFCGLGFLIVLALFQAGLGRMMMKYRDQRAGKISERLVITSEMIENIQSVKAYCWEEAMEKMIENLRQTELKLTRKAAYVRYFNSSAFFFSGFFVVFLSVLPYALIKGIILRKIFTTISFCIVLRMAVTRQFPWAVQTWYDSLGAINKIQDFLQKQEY
T7 sequence (P13569 with tags, fused parts or gaps A198Y/DEL508-508): as the sequence (P13569 with tags, fused parts or gaps W361A/DEL508-508) above, with A198Y, A361W counted along it
T8 sequence (P13569 with tags, fused parts or gaps DEL508-508): as the sequence (P13569 with tags, fused parts or gaps W361A/DEL508-508) above, with A361W counted along it
T1 sequence (P13569 with tags, fused parts or gaps K68I/DEL508-508): as the sequence (P13569 with tags, fused parts or gaps W361A/DEL508-508) above, with K68I, A361W counted along it
T2 sequence (P13569 with tags, fused parts or gaps N71I/DEL508-508): as the sequence (P13569 with tags, fused parts or gaps W361A/DEL508-508) above, with N71I, A361W counted along it
T10 sequence (P13569 837-1196): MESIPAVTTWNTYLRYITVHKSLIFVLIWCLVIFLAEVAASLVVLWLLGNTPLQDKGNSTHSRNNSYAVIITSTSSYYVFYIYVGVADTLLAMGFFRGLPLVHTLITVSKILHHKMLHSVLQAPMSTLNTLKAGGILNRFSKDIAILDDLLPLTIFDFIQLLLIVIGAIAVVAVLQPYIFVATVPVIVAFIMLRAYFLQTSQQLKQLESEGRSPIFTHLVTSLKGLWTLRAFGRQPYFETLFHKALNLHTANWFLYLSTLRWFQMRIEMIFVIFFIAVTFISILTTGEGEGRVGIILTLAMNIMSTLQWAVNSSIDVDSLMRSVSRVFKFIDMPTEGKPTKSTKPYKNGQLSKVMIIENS
T3 sequence (P13569 with tags, fused parts or gaps R74A/DEL508-508): as the sequence (P13569 with tags, fused parts or gaps W361A/DEL508-508) above, with R74A, A361W counted along it
T4 sequence (P13569 with tags, fused parts or gaps S364F/DEL508-508): as the sequence (P13569 with tags, fused parts or gaps W361A/DEL508-508) above, with A361W, S364F counted along it
T6 sequence (P13569 with tags, fused parts or gaps F81A/DEL508-508): as the sequence (P13569 with tags, fused parts or gaps W361A/DEL508-508) above, with F81A, A361W counted along it

Effect of second mutation on corrector-induced rescue of F508del-CFTR [1]: no appreciable change | Effect of second mutation on corrector-induced maturation of F508del-CFTR [2]: not affected | Effect of second mutation on corrector-induced maturation of F508del-CFTR [3]: only slightly reduced | Effect of second mutation on corrector-induced maturation of F508del-CFTR [4]: only slightly reduced | Effect of second mutation on corrector-induced maturation of F508del-CFTR [5]: markedly reduced or abolished | Effect of second mutation on corrector-induced maturation of F508del-CFTR [6]: markedly reduced or abolished | Effect of second mutation on corrector-induced maturation of F508del-CFTR [7]: markedly reduced or abolished | MSD1 half-life (CFTR MSD1): increased | MSD2 stability (CFTR MSD2): no effect
Compound: CN(C(=O)c1cccc(-n2nc(C(F)(F)F)c3c2[C@@H](Oc2ccc(C(=O)O)cc2)CCC3)c1)c1ccc2c(c1)OC(F)(F)O2 [ARN23765]
Potency in rescuing CFTR function (F508del-CFTR): subnanomolar

Reference: paper PMC11873939, “Target Identification with Live-Cell Photoaffinity Labeling and Mechanism of Action Elucidation of ARN23765, a Highly Potent CFTR Corrector” (Journal of Medicinal Chemistry, 2025)
